Test results taken from PubChem BioAssay (NCI).
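Method: 48-hour compound exposure of cells in 96-well plates, five concentrations, linear interpolation of endpoints. TGI is the concentration that stops growth completely.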

Key:
Assay in all cases: NCI-60 cell line screen, 48 h
[1] = test system: SF-539 CNS
[2] = test system: MDA-MB-435
[3] = test system: A498 renal
[4] = test system: SK-MEL-28 melanoma
[5] = test system: SF-295 CNS
[6] = test system: TK-10 renal
[7] = test system: SN12C renal
[8] = test system: SNB-75 CNS
[9] = test system: BT-549 breast
[10] = test system: MOLT-4 leukemia
[11] = test system: UACC-62 melanoma
[12] = test system: SR leukemia
[13] = test system: DU-145 prostate
[14] = test system: ACHN renal
[15] = test system: PC-3 prostate
[16] = test system: CCRF-CEM leukemia
[17] = test system: HT29 colon
[18] = test system: NCI/ADR-RES ovarian
[19] = test system: OVCAR-5 ovarian
[20] = test system: SK-OV-3 ovarian
[21] = test system: HCT-15 colon
[22] = test system: OVCAR-4 ovarian
[23] = test system: CAKI-1 renal
[24] = test system: K-562 leukemia
[25] = test system: T-47D breast
[26] = test system: SK-MEL-2 melanoma
[27] = test system: M14 melanoma
[28] = test system: NCI-H522 lung
[29] = test system: HOP-92 NSCLC
[30] = test system: OVCAR-3 ovarian
[31] = test system: UO-31 renal
[32] = test system: HCC-2998 colon
[33] = test system: RXF 393 renal
[34] = test system: COLO 205 colon
[35] = test system: SF-268 CNS
[36] = test system: NCI-H226 lung
[37] = test system: HS 578T breast
[38] = test system: MDA-MB-231 breast
[39] = test system: MALME-3M melanoma
[40] = test system: UACC-257 melanoma
[41] = test system: HL-60(TB) leukemia
[42] = test system: OVCAR-8 ovarian
[43] = test system: U251 CNS
[44] = test system: EKVX NSCLC
[45] = test system: IGROV1 ovarian
[46] = test system: HOP-62 NSCLC
[47] = test system: NCI-H460 lung
[48] = test system: SW-620 colon
[49] = test system: MCF7 breast
[50] = test system: NCI-H23 lung
[51] = test system: SK-MEL-5 melanoma
[52] = test system: LOX IMVI melanoma
[53] = test system: RPMI-8226 leukemia
[54] = test system: SNB-19 CNS
[55] = test system: KM12 colon
[56] = test system: A549 NSCLC

Measured: TGI

CCCc1cn2c(/C=N/N=C(N)N)c(-c3ccc(Cl)c([N+](=O)[O-])c3)nc2s1
375 nM: [16]
3.2 µM: [3]
2910 nM: [6]
2860 nM: [20]
2750 nM: [12]
3.15 µM: [13]
546 nM: [10]
3.38 µM: [11]
2890 nM: [19]
3.28 µM: [23]
3.1 µM: [4] | [5]
2040 nM: [17]
3.07 µM: [21]
3.06 µM: [14]
3.12 µM: [8]
3.08 µM: [9]
3.53 µM: [15]
4.95 µM: [18]
3.21 µM: [2]
2280 nM: [22]
3.31 µM: [1]
3.33 µM: [7]

COP(=O)(OC)[C@H](O)[C@H]1C[C@@H]1c1ccccc1
> 100000 nM: [6] | [10] | [17] | [19] | [20] | [22]
not listed: [1] | [7] | [12] | [16]
> 100 µM: all other assays above
